{
  "source": "patent US9359322B2",
  "about": "“C-linked glucuronide of N-(4-hydroxybenzyl) retinone, analogs thereof, and methods of using the same to inhibit neoplastic cell growth” (Wisconsin Alumni Research Foundation, priority 2005, dated 2016)",
  "key": {"[1]": {"experiment": "Terminal plasma drug levels (plasma retinoid assay, HPLC)", "assay_type": "in vivo, rat", "details": "day 22 of treatment; 2 mmol/kg diet; ± SEM", "procedure": "Plasma Retinoid Assay. To 500 μL of plasma was added 150 μL of ethanol containing 0.75 μg of internal standard (N-(4-chlorophenyl) retinamide). After mixing 30 sec., 500 μL of ethyl acetate was added followed by 1 min. of mixing and centrifugation for 5 minutes at 1000 rpm in an IEC CL centrifuge. The ethyl acetate layer was removed and syringe filtered through a 0.45 um filter. The ethyl acetate extraction was repeated two more times. The combined extracts were evaporated and the residue reconstituted in 100 μL of methanol. The methanol extract (20 μL) was analyzed by HPLC on a Beckman Instruments model 127 instrument equipped with a model 166 UV detector. Chromatography was done on a precolumn equipped 250×4.6 mm Bechman Ultrasphere ODS column with an 85% methanol/water mobile phase (both containing 10 mM ammonium acetate) flowing at 1 mL/min. Analysis for both internal standard and retinol was conducted at 350 nm and internal standard recoveries and retinol levels were determined by comparison with standard curves, with adjustment of the retinol level based on recovery. Recoveries of internal standard averaged ca. 78%. […] In the 4-HPR treated group, plasma levels of this retinoid were evaluated simultaneously in the same samples as above. In order to avoid interfering substances, plasma treatment retinoid levels for RA and 4-HBRCG were measured using the above system and a step gradient of 75% methanol for 15 min. followed by 85% methanol for 40 minutes."}, "[2]": {"system": "MCF-7 human breast cancer cells", "experiment": "Growth inhibition of MCF-7 human breast cancer cells", "assay_type": "cell-based", "details": "10^−5 M, 8-day period; FIG. 5", "procedure": "Inhibition of MCF-7 human breast cancer cell growth over an 8-day period was used as a means to assess the activity of 4-HBRCG and the analog 4-HBRCGlucose.\nGrowth inhibition of MCF-7 human breast cancer cells. MCF-7 cells were obtained from the American Type Culture Collection, Manassas, Va. They were maintained in DMEM medium supplemented with 4 g/L glucose, 3.7 g/L sodium bicarbonate and 10% heat-inactivated fetal calf serum. Cells were passaged into 12-well plates, cultured for 24 hours, after which time they were dosed with vehicle (0.2% ethanol) or retinoids; medium was changed and fresh vehicle or retinoids were added daily. Cells were harvested and the number of live cells was assessed using fluorescein diacetate, which yields a fluorescent product upon cleavage by metabolically active cells. Using fluorescent microscopy, at least 200 cells/well were counted with a hemacytometer."}, "[3]": {"experiment": "Femur bone mineral content", "assay_type": "in vivo, rat", "details": "end of feeding study; FIG. 2B", "text": "Bone Mineral Content. The femur was disarticulated from the leg, and the adhering soft tissue was removed by dissection. Femurs were scanned using the Lunar PIXImus 2 system (Model X2608, General Electric using the LUNAR software version 1.45), and control measurements were made using the small animal quality control phantom. Femurs were scanned 5 times each with re-positioning at each measure. The average value of the bone mineral content (BMC) in grams for each animal is reported as one independent measure."}, "RARβ": {"biological_target": "T1, RARβ (Homo sapiens, UniProt P10826)", "T1 sequence (P10826 1-455)": "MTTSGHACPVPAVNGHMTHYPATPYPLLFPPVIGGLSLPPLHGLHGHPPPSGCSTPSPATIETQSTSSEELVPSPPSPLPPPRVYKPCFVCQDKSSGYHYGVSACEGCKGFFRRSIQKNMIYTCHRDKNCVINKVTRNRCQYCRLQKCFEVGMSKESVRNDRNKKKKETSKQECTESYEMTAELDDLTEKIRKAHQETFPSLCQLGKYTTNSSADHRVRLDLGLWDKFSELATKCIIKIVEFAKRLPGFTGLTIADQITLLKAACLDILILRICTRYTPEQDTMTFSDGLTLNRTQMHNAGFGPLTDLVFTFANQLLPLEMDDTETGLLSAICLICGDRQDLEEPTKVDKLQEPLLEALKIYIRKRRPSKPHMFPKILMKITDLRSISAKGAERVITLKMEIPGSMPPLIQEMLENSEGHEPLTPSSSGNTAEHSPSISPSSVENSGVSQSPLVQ", "experiment": "Nuclear retinoid receptor binding assay, competition with [3H]all-trans RA", "details": "competition for [3H]atRA; present work", "procedure": "(§1) Nuclear Retinoid Receptor Binding Assay. Competition of 3 and 7 and 4-HBRCGlucose with [^3H]-all-trans-RA (4.2-4.6 nM) for binding to RARβ and RARγ and with [^3H]-9-cis RA (1.9 nM) for binding to RXRγ was determined using an in vitro ligand binding assay.^41, 42 [^3H]-all-trans-RA (40.5 Ci/mmole) or [^3H]-9-cis-RA (69.4 Ci/mmole) was added to receptor-containing extracts in the absence and presence of increasing concentrations of competing ligands at 4° C. for 3 hr. A hydroxylapatite (HAP) assay was used to separate ligand bound to receptor from that free in solution, and the radioactivity associated with the HAP pellet was measured by scintillation counting."}, "RARγ": {"biological_target": "T2, RARγ (Homo sapiens, UniProt P13631)", "T2 sequence (P13631 1-454)": "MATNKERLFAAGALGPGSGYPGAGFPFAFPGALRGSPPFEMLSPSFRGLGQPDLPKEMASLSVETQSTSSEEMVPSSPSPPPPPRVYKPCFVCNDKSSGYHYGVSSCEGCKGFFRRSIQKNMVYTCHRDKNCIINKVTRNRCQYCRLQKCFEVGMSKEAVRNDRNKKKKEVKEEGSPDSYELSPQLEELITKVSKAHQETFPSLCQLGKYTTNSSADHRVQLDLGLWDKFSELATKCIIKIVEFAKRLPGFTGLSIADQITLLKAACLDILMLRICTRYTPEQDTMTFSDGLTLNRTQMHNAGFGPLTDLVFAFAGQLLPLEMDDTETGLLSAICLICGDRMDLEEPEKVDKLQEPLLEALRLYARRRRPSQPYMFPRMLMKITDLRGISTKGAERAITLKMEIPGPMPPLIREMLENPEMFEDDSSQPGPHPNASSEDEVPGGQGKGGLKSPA", "experiment": "Nuclear retinoid receptor binding assay, competition with [3H]all-trans RA", "details": "competition for [3H]atRA; present work", "procedure": "as §1"}, "RXRγ": {"biological_target": "T3, RXRγ (Homo sapiens, UniProt P48443)", "T3 sequence (P48443 1-463)": "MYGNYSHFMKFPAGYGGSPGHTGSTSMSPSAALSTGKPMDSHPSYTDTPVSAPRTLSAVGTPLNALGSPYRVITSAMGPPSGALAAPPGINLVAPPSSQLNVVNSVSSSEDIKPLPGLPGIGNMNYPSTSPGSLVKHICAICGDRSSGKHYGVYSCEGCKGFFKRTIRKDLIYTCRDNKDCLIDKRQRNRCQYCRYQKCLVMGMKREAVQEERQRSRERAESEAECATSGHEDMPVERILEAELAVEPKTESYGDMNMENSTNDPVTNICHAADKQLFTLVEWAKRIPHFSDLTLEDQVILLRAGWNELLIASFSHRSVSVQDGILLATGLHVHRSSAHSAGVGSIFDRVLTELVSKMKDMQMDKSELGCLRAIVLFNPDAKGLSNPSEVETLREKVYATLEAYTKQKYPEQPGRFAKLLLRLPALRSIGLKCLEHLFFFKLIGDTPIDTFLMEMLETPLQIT", "experiment": "Nuclear retinoid receptor binding assay, competition with [3H]9-cis RA", "details": "4-HBRCG up to 10^−4.5 M; data not shown", "procedure": "as §1"}},
  "data": [
    {"smiles": "CC1=C(/C=C/C(C)=C/C=C/C(C)=C/C(=O)Cc2ccc(CC3OC(C(=O)O)C(O)C(O)C3O)cc2)C(C)(C)CCC1", "note": "[4-HBRCG (7), 2,6-Anhydro-7-deoxy-7-[4-(retinoylmethyl)-phenyl]-L-glycero-L-gulo-heptinoic acid]", "values": [
      {"measurement": "Plasma retinoid concentration (terminal plasma drug level)", "setting": "[1]", "value": "0.10 ± 0.01", "unit": "µg/mL"},
      {"measurement": "Effect on number of live MCF-7 cells", "setting": "[2]", "value": "reduction in the number of live cells"},
      {"measurement": "Effect on femur bone mineral content vs control", "setting": "[3]", "value": "showed no such effect"},
      {"measurement": "Times less potent than atRA in binding to RARβ", "setting": "RARβ", "value": 300, "unit": "times"},
      {"measurement": "Times less potent than atRA in binding to RARγ", "setting": "RARγ", "value": 1400, "unit": "times"},
      {"measurement": "Competition for [3H]9-cis RA binding to RXR", "setting": "RXRγ", "value": "almost no competition"}
    ]}
  ]
}
